Test results published in patent US20240101559A1, “TRICYCLIC KINASE INHIBITORS AND USES THEREOF” (DANA-FARBER CANCER INSTITUTE, INC., priority 2019, published 2024).
Blank lines part the entries; values can stand above or below the compound they belong to.

How the values were obtained:
[1] = Commercial microsome stability assay (half-life analysis); format: in vitro ADME; details: mouse liver microsomes; read-out: half-life in mouse liver microsomes (MLM)
BRAF(V600E) = BRAF(V600E) (Homo sapiens (Human), UniProt P15056, V600E); assay: KINOMEscan kinase selectivity profiling; format: binding; details: read-out: Ambit KINOMEscan (percent control %)
Excerpt: (§1) Example 7. In Vitro Kinase Selectivity Profiling of the Compounds of the Present Disclosure

PDGFRB = PDGFRB (Homo sapiens (Human), UniProt P09619); assay: KINOMEscan kinase selectivity profiling; format: binding; details: read-out: Ambit KINOMEscan (percent control %)
Excerpt: as §1

TAOK2 = TAOK2 (Homo sapiens (Human), UniProt Q9UL54); assay: KINOMEscan kinase selectivity profiling; format: binding; details: TAOK2, 1 μM; read-out: Ambit KINOMEscan (percent control %)
Sequence of TAOK2 (Q9UL54 whole entry): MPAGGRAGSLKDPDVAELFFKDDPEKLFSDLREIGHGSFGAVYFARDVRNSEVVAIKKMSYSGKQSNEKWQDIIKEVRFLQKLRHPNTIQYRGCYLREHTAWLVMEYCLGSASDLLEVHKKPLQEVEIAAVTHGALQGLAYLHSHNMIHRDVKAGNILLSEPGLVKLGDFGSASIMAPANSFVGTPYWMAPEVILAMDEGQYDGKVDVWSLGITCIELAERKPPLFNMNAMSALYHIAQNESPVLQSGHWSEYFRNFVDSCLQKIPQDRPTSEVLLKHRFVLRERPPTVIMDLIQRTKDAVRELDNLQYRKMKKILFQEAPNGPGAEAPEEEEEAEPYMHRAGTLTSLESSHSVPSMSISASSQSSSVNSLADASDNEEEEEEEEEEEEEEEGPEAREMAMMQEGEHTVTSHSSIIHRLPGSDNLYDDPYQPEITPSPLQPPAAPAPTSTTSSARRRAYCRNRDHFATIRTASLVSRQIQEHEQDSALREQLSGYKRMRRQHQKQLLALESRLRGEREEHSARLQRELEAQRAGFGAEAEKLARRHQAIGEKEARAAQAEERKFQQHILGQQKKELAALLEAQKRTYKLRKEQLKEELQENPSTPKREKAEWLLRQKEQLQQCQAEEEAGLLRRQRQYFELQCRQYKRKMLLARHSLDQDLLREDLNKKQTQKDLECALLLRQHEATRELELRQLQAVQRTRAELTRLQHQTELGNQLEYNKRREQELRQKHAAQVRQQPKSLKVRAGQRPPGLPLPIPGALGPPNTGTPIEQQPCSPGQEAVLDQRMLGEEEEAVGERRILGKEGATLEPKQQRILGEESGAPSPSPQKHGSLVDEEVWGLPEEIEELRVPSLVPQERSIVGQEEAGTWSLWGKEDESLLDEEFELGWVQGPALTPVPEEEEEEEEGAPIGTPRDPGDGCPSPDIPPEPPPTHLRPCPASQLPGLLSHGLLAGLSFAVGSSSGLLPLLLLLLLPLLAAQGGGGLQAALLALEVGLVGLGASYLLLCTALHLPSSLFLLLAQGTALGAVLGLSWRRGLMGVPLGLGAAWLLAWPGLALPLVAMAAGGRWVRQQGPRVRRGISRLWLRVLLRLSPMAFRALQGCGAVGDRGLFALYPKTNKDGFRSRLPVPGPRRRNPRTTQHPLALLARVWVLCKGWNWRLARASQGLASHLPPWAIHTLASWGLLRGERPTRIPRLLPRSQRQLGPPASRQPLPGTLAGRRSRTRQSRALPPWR
Excerpt: as §1

CDC2L2 = CDC2L2 (Homo sapiens (Human), UniProt Q9UQ88); assay: KINOMEscan kinase selectivity profiling; format: binding; details: CDC2L2, 1 μM; read-out: Ambit KINOMEscan (percent control %)
Sequence of CDC2L2 (Q9UQ88 whole entry): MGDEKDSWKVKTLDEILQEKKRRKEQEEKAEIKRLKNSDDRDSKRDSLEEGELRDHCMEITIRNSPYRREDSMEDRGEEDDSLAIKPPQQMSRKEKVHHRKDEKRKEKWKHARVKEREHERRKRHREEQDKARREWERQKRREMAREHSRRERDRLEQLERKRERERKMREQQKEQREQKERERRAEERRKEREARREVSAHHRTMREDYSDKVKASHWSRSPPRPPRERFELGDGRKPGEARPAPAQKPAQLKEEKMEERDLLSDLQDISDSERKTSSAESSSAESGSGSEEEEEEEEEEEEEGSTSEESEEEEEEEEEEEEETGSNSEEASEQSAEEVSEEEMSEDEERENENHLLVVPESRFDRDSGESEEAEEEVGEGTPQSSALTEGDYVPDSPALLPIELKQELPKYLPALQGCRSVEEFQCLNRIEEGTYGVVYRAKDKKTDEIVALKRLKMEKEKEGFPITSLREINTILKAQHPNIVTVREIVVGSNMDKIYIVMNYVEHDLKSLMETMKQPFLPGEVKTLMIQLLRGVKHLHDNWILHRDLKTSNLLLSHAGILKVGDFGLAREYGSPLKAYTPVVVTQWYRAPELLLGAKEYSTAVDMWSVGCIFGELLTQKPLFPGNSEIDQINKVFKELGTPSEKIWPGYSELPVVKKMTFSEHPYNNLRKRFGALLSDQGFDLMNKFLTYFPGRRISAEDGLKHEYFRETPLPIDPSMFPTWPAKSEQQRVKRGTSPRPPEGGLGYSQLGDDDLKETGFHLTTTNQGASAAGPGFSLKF
Excerpt: as §1

CDK11B = CDK11B (Homo sapiens (Human), UniProt P21127); assay: KINOMEscan kinase selectivity profiling; format: binding; details: read-out: Ambit KINOMEscan (percent control %)
Excerpt: as §1

BRAF = BRAF (Homo sapiens (Human), UniProt P15056); assay: KINOMEscan kinase selectivity profiling; format: binding; details: read-out: Ambit KINOMEscan (percent control %)
Excerpt: as §1

CSF1R = CSF1R (Homo sapiens (Human), UniProt P07333); assay: KINOMEscan kinase selectivity profiling; format: binding; details: read-out: Ambit KINOMEscan (percent control %)
Excerpt: as §1

DDR1 = DDR1 (Homo sapiens (Human), UniProt Q08345); assay: KINOMEscan kinase selectivity profiling; format: binding; details: DDR1, 1 μM; read-out: Ambit KINOMEscan (percent control %)
Sequence of DDR1 (Q08345 19-913): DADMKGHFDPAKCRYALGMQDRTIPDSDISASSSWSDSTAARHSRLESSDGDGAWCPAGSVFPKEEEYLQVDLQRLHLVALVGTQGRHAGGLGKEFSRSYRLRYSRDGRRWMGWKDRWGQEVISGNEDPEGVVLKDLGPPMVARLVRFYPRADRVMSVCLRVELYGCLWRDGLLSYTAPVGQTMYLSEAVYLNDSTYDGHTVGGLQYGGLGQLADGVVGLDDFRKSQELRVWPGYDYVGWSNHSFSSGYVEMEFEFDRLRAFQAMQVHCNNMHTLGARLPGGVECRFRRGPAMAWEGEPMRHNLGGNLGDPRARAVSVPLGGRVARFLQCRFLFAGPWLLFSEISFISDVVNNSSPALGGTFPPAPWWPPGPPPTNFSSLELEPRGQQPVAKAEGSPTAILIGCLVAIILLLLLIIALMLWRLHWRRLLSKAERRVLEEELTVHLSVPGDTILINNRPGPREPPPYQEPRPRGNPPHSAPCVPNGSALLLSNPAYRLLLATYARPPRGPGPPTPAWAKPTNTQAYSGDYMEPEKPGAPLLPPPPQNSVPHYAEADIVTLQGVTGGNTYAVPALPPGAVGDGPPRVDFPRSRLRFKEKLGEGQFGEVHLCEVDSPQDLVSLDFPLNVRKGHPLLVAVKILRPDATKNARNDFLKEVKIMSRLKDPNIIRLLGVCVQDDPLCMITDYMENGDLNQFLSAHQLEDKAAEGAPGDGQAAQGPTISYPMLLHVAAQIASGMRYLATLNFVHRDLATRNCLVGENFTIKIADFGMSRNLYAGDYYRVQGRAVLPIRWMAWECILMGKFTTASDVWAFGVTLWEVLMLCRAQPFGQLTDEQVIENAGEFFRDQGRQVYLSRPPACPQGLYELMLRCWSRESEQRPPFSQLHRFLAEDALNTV
Excerpt: as §1

KIT(L576P) = KIT(L576P) (Homo sapiens (Human), UniProt P10721, L576P); assay: KINOMEscan kinase selectivity profiling; format: binding; details: read-out: Ambit KINOMEscan (percent control %)
Sequence of KIT(L576P) (P10721 26-976 L576P): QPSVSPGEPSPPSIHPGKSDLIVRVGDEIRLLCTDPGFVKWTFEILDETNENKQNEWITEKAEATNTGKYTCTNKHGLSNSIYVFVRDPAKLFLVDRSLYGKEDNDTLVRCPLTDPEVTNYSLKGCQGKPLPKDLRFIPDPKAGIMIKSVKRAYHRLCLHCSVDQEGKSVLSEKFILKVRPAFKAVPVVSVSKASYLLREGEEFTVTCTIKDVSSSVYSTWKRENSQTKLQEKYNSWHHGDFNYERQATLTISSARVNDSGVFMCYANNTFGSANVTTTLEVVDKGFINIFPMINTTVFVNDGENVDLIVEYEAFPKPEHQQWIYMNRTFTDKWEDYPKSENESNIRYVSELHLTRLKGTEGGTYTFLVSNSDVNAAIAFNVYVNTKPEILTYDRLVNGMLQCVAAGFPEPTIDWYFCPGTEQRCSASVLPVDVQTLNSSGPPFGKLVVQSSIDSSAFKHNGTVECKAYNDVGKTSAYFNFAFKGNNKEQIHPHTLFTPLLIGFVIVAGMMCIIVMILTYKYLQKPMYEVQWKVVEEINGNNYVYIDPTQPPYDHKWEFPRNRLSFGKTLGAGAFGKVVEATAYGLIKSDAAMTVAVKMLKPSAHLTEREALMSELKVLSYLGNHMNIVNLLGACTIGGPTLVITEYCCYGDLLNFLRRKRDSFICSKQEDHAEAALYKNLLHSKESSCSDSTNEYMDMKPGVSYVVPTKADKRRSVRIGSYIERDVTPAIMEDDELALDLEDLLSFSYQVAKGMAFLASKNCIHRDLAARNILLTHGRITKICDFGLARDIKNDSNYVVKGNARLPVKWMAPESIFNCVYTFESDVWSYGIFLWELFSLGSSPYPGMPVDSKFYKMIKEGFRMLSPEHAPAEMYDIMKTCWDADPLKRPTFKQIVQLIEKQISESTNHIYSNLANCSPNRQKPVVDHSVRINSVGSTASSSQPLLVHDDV
Excerpt: as §1

DDR2 = DDR2 (Homo sapiens (Human), UniProt Q16832); assay: KINOMEscan kinase selectivity profiling; format: binding; details: DDR2, 1 μM; read-out: Ambit KINOMEscan (percent control %)
Excerpt: as §1

CDK11A = CDK11A (Homo sapiens (Human), UniProt Q9UQ88); assay: Competition binding assay (kinase-tagged phage, qPCR); details: 11 serial threefold dilutions, read-out: inhibition on CDK11A, IC50
Sequence of CDK11A (Q9UQ88 whole entry): as the sequence (Q9UQ88 whole entry) above
Method: Compounds of the present disclosure were analyzed with a competition binding assay with three components: a kinase-tagged phage, a compound of the present disclosure, and an immobilized ligand that the test compound competes with to displace the kinase. The amount of kinase bound to the immobilized ligand is determined using quantitative PCR of the DNA tag. Kd values (nM) reported for each compound were determined using 11 serial threefold dilutions of test compound and a DMSO control.

JAK2 = JAK2 (Homo sapiens (Human), UniProt O60674); assay: JAK2 Z-Lyte biochemical assay; details: commercial JAK2 Z-Lyte assay from Invitrogen
Sequence of JAK2 (O60674 whole entry): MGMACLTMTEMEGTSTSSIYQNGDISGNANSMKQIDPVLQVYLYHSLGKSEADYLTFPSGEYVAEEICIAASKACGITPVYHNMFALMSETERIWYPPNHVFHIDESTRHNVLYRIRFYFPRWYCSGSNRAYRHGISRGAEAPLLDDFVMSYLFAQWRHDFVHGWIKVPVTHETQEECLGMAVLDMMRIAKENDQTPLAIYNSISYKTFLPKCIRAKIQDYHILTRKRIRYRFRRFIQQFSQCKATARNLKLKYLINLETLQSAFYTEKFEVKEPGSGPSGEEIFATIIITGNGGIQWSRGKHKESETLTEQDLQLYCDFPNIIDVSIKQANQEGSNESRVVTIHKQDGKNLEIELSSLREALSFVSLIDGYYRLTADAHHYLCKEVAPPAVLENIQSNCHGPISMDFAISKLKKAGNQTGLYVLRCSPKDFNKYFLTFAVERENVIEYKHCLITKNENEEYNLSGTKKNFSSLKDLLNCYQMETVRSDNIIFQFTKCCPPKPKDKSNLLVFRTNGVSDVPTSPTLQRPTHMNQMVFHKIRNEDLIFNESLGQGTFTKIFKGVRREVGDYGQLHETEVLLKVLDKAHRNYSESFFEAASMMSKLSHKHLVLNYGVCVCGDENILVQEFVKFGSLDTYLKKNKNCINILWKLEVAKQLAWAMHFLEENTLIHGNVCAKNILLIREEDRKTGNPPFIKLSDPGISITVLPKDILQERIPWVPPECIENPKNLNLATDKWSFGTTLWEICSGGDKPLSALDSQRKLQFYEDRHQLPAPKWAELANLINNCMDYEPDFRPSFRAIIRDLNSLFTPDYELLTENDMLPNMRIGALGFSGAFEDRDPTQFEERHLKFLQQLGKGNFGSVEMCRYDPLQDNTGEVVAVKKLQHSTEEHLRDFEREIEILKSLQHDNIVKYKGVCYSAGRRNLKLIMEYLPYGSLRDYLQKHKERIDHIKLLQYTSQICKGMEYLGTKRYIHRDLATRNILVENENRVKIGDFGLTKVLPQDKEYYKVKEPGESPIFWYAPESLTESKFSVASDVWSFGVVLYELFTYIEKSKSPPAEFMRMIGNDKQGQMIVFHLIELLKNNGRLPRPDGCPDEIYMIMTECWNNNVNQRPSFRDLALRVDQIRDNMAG
Method: Example 3. JAK2 Z-Lyte Biochemical Assay of the Compounds of the Present Disclosure
The JAK2 Z-Lyte biochemical assay was performed according to manufacturer's instructions (Life Technologies).

CDK11/CycL = assay: NanoBRET assay, CDK11/CycL; format: cell-based; details: live cells, read-out: inhibition of CDK11/CycL interaction
Excerpt: (§2) The NanoBRET™ assay (Promega Corporation) is a bioluminescence resonance energy transfer (BRET)-based assay that uses NanoLuc® Luciferase as the BRET energy donor and HaloTag® protein labeled with the HaloTag® NanoBRET™ 618 fluorescent Ligand as the energy acceptor to measure the interaction of two binding partners in live cells.

CDK11/cycK = assay: NanoBRET assay, CDK11/cycK; format: cell-based; details: live cells, read-out: inhibition of CDK11/cycK interaction
Excerpt: as §2

[2] = system: cell lines or patient-derived xenografts from patients with CRLF2-rearranged B-ALL; details: cited from earlier work

half-life [1]: 16.7 min
remaining binding at 1 µM (BRAF(V600E)): 2%
remaining binding at 1 µM (PDGFRB): 0.1%
remaining binding at 1 µM (TAOK2): 0.3%
remaining binding at 1 µM (CDC2L2): 1%
remaining binding at 1 µM (CDK11B): 1.3%
remaining binding at 1 µM (BRAF): 5.5%
remaining binding at 1 µM (CSF1R): 0.75%
remaining binding at 1 µM (DDR1): 0%
remaining binding at 1 µM (KIT(L576P)): 0.2%
remaining binding at 1 µM (DDR2): 0%
IC50 (CDK11A): 30 nM
IC50 (JAK2): 820 nM
IC50 (CDK11/CycL): 290 nM
IC50 (CDK11/cycK): 278 nM
Compound: CCN1CCN(Cc2ccc(Nc3nc4ccc(Oc5ccnc(NC(C)=O)c5)c5c4n3CCC5)cc2C(F)(F)F)CC1 [Compound I-1, N-(4-((2-((4-((4-ethylpiperazin-1-yl)methyl)-3-(trifluoromethyl)phenyl)amino)-5,6-dihydro-4H-imidazo [4,5,1-ij]quinolin-7-yl)oxy)pyridin-2-yl) acetamide]

IC50 (JAK2): > 10000 nM
Compound: CC(=O)Nc1cc(Oc2ccc3nc(Nc4ccc(Cl)c(C(F)(F)F)c4)n4c3c2CCC4)ccn1 [Compound I-3, N-(4-((2-((4-chloro-3-(trifluoromethyl)phenyl)amino)-5,6-dihydro-4H-imidazo[4,5,1-ij]quinolin-7-yl)oxy)pyridin-2-yl)acetamide]

IC50 (JAK2): 1810 nM
Compound: CCN1CCN(Cc2cc(Nc3nc4ccc(Oc5ccnc(NC(C)=O)c5)c5c4n3CCC5)cc(C(F)(F)F)c2)CC1 [Compound I-4, N-(4-((2-((3-((4-ethylpiperazin-1-yl)methyl)-5-(trifluoromethyl)phenyl)amino)-5,6-dihydro-4H-imidazo[4,5,1-ij]quinolin-7-yl)oxy)pyridin-2-yl)acetamide]

IC50 (JAK2): 5940 nM
Compound: CC(=O)Nc1cc(Oc2ccc3nc(Nc4ccc(CN5CCN(C)CC5)cc4)n4c3c2CCC4)ccn1 [Compound I-5, N-(4-((2-((4-((4-methylpiperazin-1-yl)methyl)phenyl)amino)-5,6-dihydro-4H-imidazo[4,5,1-ij]quinolin-7-yl)oxy)pyridin-2-yl)acetamide]

IC50 (JAK2): 1820 nM
Compound: CC(=O)Nc1cc(Oc2ccc3nc(Nc4ccc(F)cc4F)n4c3c2CCC4)ccn1 [Compound I-6, N-(4-((2-((2,4-difluorophenyl)amino)-5,6-dihydro-4H-imidazo[4,5,1-ij]quinolin-7-yl)oxy)pyridin-2-yl)acetamide]

IC50 (JAK2): 4560 nM
Compound: CC(=O)Nc1cc(Oc2ccc3nc(Nc4cc(-n5cnc(C)c5)cc(C(F)(F)F)c4)n4c3c2CCC4)ccn1 [Compound I-7, N-(4-((2-((3-(4-methyl-1H-imidazol-1-yl)-5-(trifluoromethyl)phenyl)amino)-5,6-dihydro-4H-imidazo[4,5,1-ij]quinolin-7-yl)oxy)pyridin-2-yl)acetamide]

IC50 (JAK2): 9930 nM
Compound: CC(=O)Nc1cc(Oc2ccc3nc(Nc4cc(N5CCN(C)CC5)cc(C(F)(F)F)c4)n4c3c2CCC4)ccn1 [Compound I-8, N-(4-((2-((3-(4-methylpiperazin-1-yl)-5-(trifluoromethyl)phenyl)amino)-5,6-dihydro-4H-imidazo[4,5,1-ij]quinolin-7-yl)oxy)pyridin-2-yl)acetamide]

IC50 (JAK2): 1770 nM
Compound: CC(=O)Nc1cc(Oc2ccc3nc(Nc4ccc(CN5CCC(N(C)C)C5)c(C(F)(F)F)c4)n4c3c2CCC4)ccn1 (stereo not shown) [Compound I-9, N-(4-((2-((4-((3-(dimethylamino)pyrrolidin-1-yl)methyl)-3-(trifluoromethyl)phenyl)amino)-5,6-dihydro-4H-imidazo[4,5,1-ij]quinolin-7-yl)oxy)pyridin-2-yl)acetamide]

IC50 (JAK2): > 10000 nM
Compound: CC(=O)Nc1cc(Oc2ccc3nc(Nc4cc(C(C)(C)C)nn4-c4ccc(C)cc4)n4c3c2CCC4)ccn1 [Compound I-10, N-(4-((2-((3-(tert-butyl)-1-(p-tolyl)-1H-pyrazol-5-yl)amino)-5,6-dihydro-4H-imidazo[4,5,1-ij]quinolin-7-yl)oxy)pyridin-2-yl)acetamide]

IC50 (JAK2): 3680 nM
Compound: CC(=O)Nc1cc(Oc2ccc3nc(Nc4ccc(OC5CCN(C)CC5)c(C(F)(F)F)c4)n4c3c2CCC4)ccn1 [Compound I-11, N-(4-((2-((4-((1-methylpiperidin-4-yl)oxy)-3-(trifluoromethyl)phenyl)amino)-5,6-dihydro-4H-imidazo[4,5,1-ij]quinolin-7-yl)oxy)pyridin-2-yl)acetamide]

Compound: N#CC[C@H](C1CCCC1)n1cc(-c2ncnc3[nH]ccc23)cn1 [Ruxolitinib]
IC50 [2]: > 20000 nM
